Laboratory results as given in patent publication EP0327365B1, “Improvements in or relating to modified haptens useful as imaging and therapeutic agents” (HYBRITECH INCORPORATED, priority 1988, dated 1989).

What was measured:
antibody CHA255 = assay: Antibody CHA255 binding assay (Centrifree ultrafiltration); parameters: species or system BALB/c mice; details: ⁹⁰Y³⁺ or ¹¹¹In³⁺ chelate of DTPA alone
Procedure: As indicated, the monoclonal antibody CHA255 is specific for the In³⁺-benzyl EDTA complex. The affinity and characterization have been described previously in Nature, 316, 265 (1985). Binding assays were performed to verify the identity of the haptens designated as DB-I to DB-VIII. […] For the ⁹⁰Y³⁺ hapten chelate, in particular, CHA255 binding required the presence of the In-benzyl-EDTA moiety as provided in the compounds of the invention. The labeled DB hapten chelates were combined with antibody CHA255 in PBS (10 mM sodium phosphate, 150 mM sodium chloride, pH 7.4) containing 44 »g/ml of human serum albumin and 0.05% Triton-X-100 detergent. Concentrations of the radiolabeled hapten chelating agent and antibody are 5 nM and 133 nM, respectively. The mixture is vortexed and allowed to stand at room temperature for 15 minutes, after which it is transferred to an Amicon Centrifree™ device, with a NMW limit of 30,000, and centrifuged to separate antibody-bound chelate from free hapten chelate. The species bound to the antibody is retained by the membrane and the free chelate flows through the membrane into the filtrate. The extent of antibody-hapten chelate binding is then determined.

T-380 tumors [1] = assay: Hapten biodistribution, prelocalization protocol with bifunctional antibody ECH037.2; assay type: in vivo, nude mice
Procedure: (§1) Two protocols were used for examining the biodistribution of the derivatized haptens in the presence of the bifunctional antibody ECH037.2. In a premix protocol, ECH037.2 and the derivatized hapten were combined prior to injection in the animals. In the prelocalization protocol, ECH037.2 was injected into the animals, and the antibody was allowed to prelocalize for 24 hours prior to injection of the radiolabeled hapten.
(§2) Biodistribution studies were performed in nude mice carrying subcutaneous implants of the human colon carcinoma cell line T-380 which expresses the carcinoembryonic antigen (CEA) recognized by ECH037.2. Briefly, Balb/C Nu/Nu mice were injected subcutaneously with a minced preparation of T-380 tumor implants and maintained for approximately two weeks, or until the tumor implant had grown to a size of approximately 0.5 grams as described by Hagan, P.L., et al. J. Nuc. Med., 26 1418-1423 (1985). Mice were kept in a sterile environment to prevent complications due to bacterial or viral infections. Biodistributions were performed as described by Halpern, S., et al., Cancer Res. 43, 5347-5355 (1983). Briefly, the radiolabeled haptens were injected intravenously in […], and the pharmacokinetics were evaluated at several time points post-injection. At these times, mice were sacrificed and weighed. Organs were removed, their weight recorded, and each organ was then washed in sterile PBS, pH 7.0, and fixed in formalin solution. Samples of blood, urine and feces also were collected and their weight similarly recorded. The organs, or a portion thereof, were transferred to clean tubes and their radioactive content was determined in a well-type gamma-counter.
(§3) Relative radioactive content of each organ was expressed as a percentage of injected dose per organ.
To indium-label the chelating agents for the prelocalization protocol, 5 »l of 0.1 mM chelating agent was combined with X »l of ¹¹¹InCl₃ (in 50 mM HCl) and (x+5) »l of 0.26 M ammonium citrate, pH 6.0. X was calculated by the following equation: X = 200 »Ci/A »Ci/»l [formula] where A is the specific activity of the ¹¹¹InCl₃ solution. The solution was vortexed and allowed to stand at room temperature for 15 minutes, after which incorporation of ¹¹¹In label into the chelating agent was determined as described for the premix protocol. If at least 95 percent of the ¹¹¹In was bound by the chelating agent, the material was then diluted to a final volume of 2 ml with isotonic (1.39 percent, w/v) sodium bicarbonate containing 1 mg/ml normal human serum albumin. This material (100 »l) then was injected into each tail vein of mice which had each been injected 24 hours earlier with 5 »g of ECH037.2 in 100 »l isotonic sodium bicarbonate containing 1 mg/ml normal human serum albumin.

T-380 tumors [2] = assay: Hapten biodistribution, premix protocol with bifunctional antibody ECH037.2; assay type: in vivo, nude mice; parameters: TOTAL RECOV: unit not given here; details: for % DOSE PER GRAM, KIDNEY / % DOSE PER GRAM, LIVER / % DOSE PER GRAM, TUMOR / FECES / TOTAL RECOV / URINE / % DOSE PER GRAM, BLOOD / TUMOR/BLOOD: premix with 20 µg ECH037.2; for % DOSE PER GRAM, BLOOD: 111In-labeled hapten i.v.; for TUMOR/BLOOD: ratio; for Percent Injected Dose in Feces: premix protocol (Table VI)
Procedure: as §1, §2, §3
To indium-label the haptens of the invention 10 »l of 0.1 mM ligand was combined with X »l of ¹¹¹InCl₃ (in 50 mM HCl) and (x+10) »l of 0.26 M ammonium citrate, pH 6.0. X is calculated by the following equation: X = (200 »Ci)/(A »Ci/»l) [formula] where A is the specific activity of the ¹¹¹In.
The labeling was done in an acid-washed microfuge tube. After combining all of the components above, the solution was vortexed and allowed to stand at room temperature for 15 minutes.
Incorporation of the ¹¹¹In into the chelating agent was determined by TLC on silica in a methanol/aqueous ammonium acetate solvent system as described by Meares, et al. (Anal. Biochem., 142, 68-75 (1984)). Greater than 95% incorporation of the radioactivity into the chelate was required for the sample to be submitted for a biodistribution assay.
Prior to injection the ¹¹¹In-labeled hapten was diluted into freshly prepared isotonic sodium bicarbonate (1.39% w/v) containing 1 mg/ml normal human serum albumin (Buminate, 25% solution, Travenol Laboratories, Glendale, California) to which the bifunctional antibody had been added. The final composition of the solution was 0.2 mg/ml ECH037.2, 0.5 »M chelate, 0.1 »Ci/»l ¹¹¹In, all in a volume of 2.0 ml. For the biodistribution studies, 100 »l of the solution was injected into the tail vein of each animal.

[3] = tested on: monoclonal antibody CHA255; assay: Determination of hapten-antibody dissociation rates; assay type: binding, BALB/c mice; details: 22°C; indium complex of hapten from CHA255 after 100 fold excess of indium-115 loaded hapten
Procedure: Hapten-antibody dissociation rates were determined using monoclonal antibody CHA255, prepared as described in Example 2A, by measuring the quantity of ¹¹¹In³⁺ chelate released from the antibody hapten complex as a function of time after addition of a 100 fold excess (over antibody binding sites) of indium-115 loaded hapten. Thus, for each hapten, a 700 »l solution was prepared containing: antibody at a concentration of 160 nM; indium loaded hapten, trace labeled with ¹¹¹In (total concentration = 160 nM); normal human serum albumin at a total concentration of 1.5 mg/mL; and isotonic phosphate buffered saline, (10 mM PO₄²⁻, 150 mM NaCl, pH 7.2). Indium-115 loaded hapten was added to a final Concentration of […]. Reactions were stirred by placing the sample containers ir a rack mounted on a vortexer head.
At various times after addition of the excess hapten, […] portions of the reaction solutions were transferred to Centrifree tubes (Amicon Corperation, Danvers, Massachusetts) and centrifuged at 1500xg for eight to ten minutes. The reaction time was taken to be the time between addition of the excess hapten and the time the centrifuge reached the desired velocity. Six timepoints, each in duplicate, were obtained over a range of about two reaction half-lives for each rate constant determination. A 200 »l portion from each centrifuged and uncentrifuged solution was then counted for ¹¹¹In. The relative concentration of free hapten was taken to be the ratio of counts in the centrifuged solution to the uncentrifuged solution at each timepoint. Times were recorded to the nearest tenth of a minute.
Room temperature rate constants were measured without the aid of a constant temperature bath. The ambient temperature remained at 22°±1 C.
Rate constants and standard deviations were obtained from a plot of the logarithm of relative complex concentration vs. time. Data were analyzed using the linear regression module of the RS/1 Program (BBN Software Products Corporation, Cambridge, Massachusetts).
Control samples were included in each experiment to determine: A) that the initial condition of 100% of labeled hapten bound to antibody was met, and B) that in the absence of antibody, 100% of counts were able to penetrate the Centrifree membrane. […]

[4] = Aqueous solubility (observation during synthesis); assay type: physicochemical; details: metal-free chelating agent, in words

% DOSE PER GRAM, KIDNEY (T-380 tumors [2]; 24 hours) [% DOSE PER GRAM] | % DOSE PER GRAM, LIVER (T-380 tumors [2]; 24 hours) [% DOSE PER GRAM] | % DOSE PER GRAM, TUMOR (T-380 tumors [2]; 24 hours) [% DOSE PER GRAM] | FECES (T-380 tumors [2]; 24 hours) | TOTAL RECOV (T-380 tumors [2]; 24 hours) | URINE (T-380 tumors [2]; 24 hours) | % DOSE PER GRAM, BLOOD (T-380 tumors [2]; 24 hours) [% DOSE PER GRAM] | TUMOR/BLOOD (T-380 tumors [2]; 24 hours) | Percent Injected Dose in Feces (T-380 tumors [2]; 24 hrs.) [Percent Injected Dose] | % DOSE PER GRAM, KIDNEY (T-380 tumors [2]; 48 hours) [% DOSE PER GRAM] | % DOSE PER GRAM, LIVER (T-380 tumors [2]; 48 hours) [% DOSE PER GRAM] | % DOSE PER GRAM, TUMOR (T-380 tumors [2]; 48 hours) [% DOSE PER GRAM] | FECES (T-380 tumors [2]; 48 hours) | TOTAL RECOV (T-380 tumors [2]; 48 hours) | URINE (T-380 tumors [2]; 48 hours) | % DOSE PER GRAM, BLOOD (T-380 tumors [2]; 48 hours) [% DOSE PER GRAM] | TUMOR/BLOOD (T-380 tumors [2]; 48 hours) | Percent Injected Dose in Feces (T-380 tumors [2]; 48 hrs.) [Percent Injected Dose] | SMILES | also measured
 |  |  |  |  |  |  |  |  |  |  |  |  |  |  |  |  |  | O=C(O)CN(CCN(CC(=O)O)CC(=O)O)CCN(CC(=O)O)CC(=O)O [DTPA, diethylenetriaminepentaacetic acid] | binding to CHA255 (antibody CHA255): neither ⁹⁰Y³⁺ or ¹¹¹In³⁺ DTPA, alone, bound to CHA255
1.2 | 1.7 | 8.4 | 22.0% of total injected dose | 59.7 | 21.7% of total injected dose | 6.2 | 1.35 | 22.0 | 0.8 | 1.1 | 6.9 | 34.9% of total injected dose | 66.4 | 22.4% of total injected dose | 3.7 | 1.86 | 34.9 | O=C(O)Cc1ccc(NC(=S)Nc2ccc(CC(CN(CC(=O)O)CC(=O)O)N(CC(=O)O)CC(=O)O)cc2)cc1 (stereo not shown) [PHATUBE] | fecal excretion (T-380 tumors [1]; 5 µg ECH037.2 24 hours earlier, all time points (4, 24, 48 hours), Figures 3-5, in words): high degree of fecal excretion; tumor/organ values (T-380 tumors [1]; Figures 6-8 (4, 24, 48 hours), in words): exceptional; t1/2, Dissociation Half-Lives [3]: 1.19 h
2.8 | 3.8 | 12.5 | 6.2% of total injected dose |  | 25.9% of total injected dose | 9.3 | 1.34 | 6.2 | 1.4 | 3.1 | 14.5 | 7.9% of total injected dose |  | 49.3% of total injected dose | 4.7 | 3.09 | 7.9 | O=C(O)CN(CC(=O)O)CC(Cc1ccc(NC(=S)NCCO)cc1)N(CC(=O)O)CC(=O)O (stereo not shown) [EOTUBE] | tumor/organ ratios (T-380 tumors [1]; 24 hours (Figure 7), in words): high tumor/organ ratios; tumor uptake (T-380 tumors [1]; all time points (Figures 3-5), in words): high tumor uptake at all time points; tumor uptake (T-380 tumors [2]; premix protocol, Figure 1 (24 and 48 hours), in words): outstanding tumor uptake; tumor/blood ratios (T-380 tumors [2]; premix protocol, Figure 2 (24 and 48 hours), in words): good tumor/blood ratios
0.5 | 0.8 | 1.1 | 56.5% of total injected dose | 68.9 | 8.9% of total injected dose | 1.1 | 1.00 | 56.5 | 0.2 | 0.6 | 0.7 | 68.4% of total injected dose | 81.4 | 10.9% of total injected dose | 0.5 | 1.40 | 68.4 | CCCCCCCCNC(=S)Nc1ccc(CC(CN(CC(=O)O)CC(=O)O)N(CC(=O)O)CC(=O)O)cc1 (stereo not shown) [OTUBE] | amount of hapten in the tumor (T-380 tumors [2]; 24 hrs., premix protocol): 1.1 percent injected dose/gram; injected material excreted in the feces (T-380 tumors [2]; 48 hrs. post injection, premix protocol): 68.4% of the injected material; amount of hapten in the tumor (T-380 tumors [2]; 48 hrs., premix protocol): 0.7 percent injected dose/gram; aqueous solubility [4]: Low aqueous solubility
